Assay results reported in US20230183226A1, “AKT3 MODULATORS” (Georgiamune LLC, priority 2020, published 2023).

Biological target: Akt3 (Homo sapiens, UniProt Q9Y243)
Assay: Akt3 inhibition and activation activity (Foxp3 induction assay / Jurkat-FoxP3 luciferase reporter assay)
Format: cell-based
Settings: Table 2
Experimental: Sorted or enriched (Miltenyi magnetic separation) CD4 conventional T cells (Tconvs−CD4+/CD25) from C57/Bl6 mice were used for the induction of iTregs. A 10 µg/mL plate-bound anti-CD3 antibody (50 ul per well for 96-well plate), […] of soluble anti-CD28 antibody, 100 IU/mL of IL2 and 5 ng/mL of TGF-β in absence or presence of different concentrations of drug (usually titrating from 0.01 uM to 10 uM) were used. As negative control for induction, samples without TGF-β were used.
After 3 days of culture in presence of stimulation, TGF-β and drug, cells were stained with fixable live/dead cell stain (Life Technologies, NY) for gating and exclusion of toxic doses. The mouse Foxp3 buffer kit was used to fix and permeabilize cells according to the manufacturer's instructions (BD Bioscience, San Jose, Calif.). The anti-CD4 antibody and anti-Foxp3 antibody were used to stain the cells. After staining, cells were acquired using flow cytometer.
Cells Culture Process: Prepare a 50 ml conical tube and a T-25 culture flask with 5 ml of pre-warmed Thaw Medium 2 (no G418). Quickly thaw cells in a 37° C. water bath with constant and slow agitation. Immediately transfer the entire contents to the conical tube with Thaw Medium 2 (no G418) and centrifuge the cells at 200×g for 3 minutes.

Sequence of Akt3 (Q9Y243 2-479): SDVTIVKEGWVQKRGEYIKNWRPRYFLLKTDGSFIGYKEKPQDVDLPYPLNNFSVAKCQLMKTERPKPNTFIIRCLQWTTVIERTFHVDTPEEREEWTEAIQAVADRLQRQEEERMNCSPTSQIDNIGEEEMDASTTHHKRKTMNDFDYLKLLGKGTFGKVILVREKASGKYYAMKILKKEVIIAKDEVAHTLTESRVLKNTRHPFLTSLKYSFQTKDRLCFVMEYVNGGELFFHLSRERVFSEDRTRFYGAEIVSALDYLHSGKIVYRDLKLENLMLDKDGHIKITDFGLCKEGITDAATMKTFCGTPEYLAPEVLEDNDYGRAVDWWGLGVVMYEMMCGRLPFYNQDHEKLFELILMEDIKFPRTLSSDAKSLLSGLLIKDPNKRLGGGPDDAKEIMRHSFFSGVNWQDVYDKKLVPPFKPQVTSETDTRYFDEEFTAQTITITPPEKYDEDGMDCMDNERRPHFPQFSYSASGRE

For “6-(2,6-dimethylmorpholino)-2-methyl-N-(4-(5-(2-methylpyridin-4-ylamino)-1H-benzo[d]imidazol-2-yl)phenyl)quinolin-4-amine [Compound 128]”, the EC50 was less than 50 nM.
